In PubChem BioAssay (NCI):
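Cells were grown in 96-well plates and exposed to each compound for 48 hours at five concentrations; endpoints were interpolated linearly between bracketing concentrations, or set to the highest concentration if not reached.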 Calls of active or inactive are those of the source. Cut-off read from the data, not from the text of the source: active = GI50 below about 0.43 µM; inactive = the rest.

Experiments:
Test in all cases: growth of human tumour cells (NCI), 48 h
T-47D breast = test system: T-47D breast
SNB-75 CNS = test system: SNB-75 CNS
HCT-116 colon = test system: HCT-116 colon
OVCAR-8 ovarian = test system: OVCAR-8 ovarian
EKVX NSCLC = test system: EKVX NSCLC
TK-10 renal = test system: TK-10 renal
LOX IMVI melanoma = test system: LOX IMVI melanoma
MALME-3M melanoma = test system: MALME-3M melanoma
MDA-MB-231 breast = test system: MDA-MB-231 breast
A549 NSCLC = test system: A549 NSCLC
DU-145 prostate = test system: DU-145 prostate
HCC-2998 colon = test system: HCC-2998 colon
SW-620 colon = test system: SW-620 colon
RXF 393 renal = test system: RXF 393 renal
UACC-257 melanoma = test system: UACC-257 melanoma
HT29 colon = test system: HT29 colon
SF-539 CNS = test system: SF-539 CNS
M14 melanoma = test system: M14 melanoma
IGROV1 ovarian = test system: IGROV1 ovarian
SNB-19 CNS = test system: SNB-19 CNS
MCF7 breast = test system: MCF7 breast
MOLT-4 leukemia = test system: MOLT-4 leukemia
U251 CNS = test system: U251 CNS
CCRF-CEM leukemia = test system: CCRF-CEM leukemia
SF-295 CNS = test system: SF-295 CNS
A498 renal = test system: A498 renal
SF-268 CNS = test system: SF-268 CNS
UO-31 renal = test system: UO-31 renal
HOP-92 NSCLC = test system: HOP-92 NSCLC
SK-MEL-2 melanoma = test system: SK-MEL-2 melanoma
SK-MEL-28 melanoma = test system: SK-MEL-28 melanoma
SK-OV-3 ovarian = test system: SK-OV-3 ovarian
CAKI-1 renal = test system: CAKI-1 renal
HL-60(TB) leukemia = test system: HL-60(TB) leukemia
OVCAR-4 ovarian = test system: OVCAR-4 ovarian
OVCAR-3 ovarian = test system: OVCAR-3 ovarian
BT-549 breast = test system: BT-549 breast
NCI/ADR-RES ovarian = test system: NCI/ADR-RES ovarian
UACC-62 melanoma = test system: UACC-62 melanoma
HS 578T breast = test system: HS 578T breast
HCT-15 colon = test system: HCT-15 colon
NCI-H23 lung = test system: NCI-H23 lung
PC-3 prostate = test system: PC-3 prostate
COLO 205 colon = test system: COLO 205 colon
SR leukemia = test system: SR leukemia
OVCAR-5 ovarian = test system: OVCAR-5 ovarian
SN12C renal = test system: SN12C renal
NCI-H460 lung = test system: NCI-H460 lung
K-562 leukemia = test system: K-562 leukemia
MDA-MB-435 = test system: MDA-MB-435
HOP-62 NSCLC = test system: HOP-62 NSCLC
SK-MEL-5 melanoma = test system: SK-MEL-5 melanoma

Measured: outcome

O=c1cc(-c2cc(O)c(O)c(-c3c(O)cc(O)c4c(=O)cc(-c5ccc(O)c(O)c5)oc34)c2)oc2cc(O)cc(O)c12
inactive: T-47D breast | SNB-75 CNS | HCT-116 colon | OVCAR-8 ovarian | EKVX NSCLC | TK-10 renal | LOX IMVI melanoma | MALME-3M melanoma | MDA-MB-231 breast | A549 NSCLC | DU-145 prostate | HCC-2998 colon | SW-620 colon | RXF 393 renal | UACC-257 melanoma | HT29 colon | SF-539 CNS | M14 melanoma | IGROV1 ovarian | SNB-19 CNS | MCF7 breast | MOLT-4 leukemia | U251 CNS | CCRF-CEM leukemia | SF-295 CNS | A498 renal | SF-268 CNS | UO-31 renal | HOP-92 NSCLC | SK-MEL-2 melanoma | SK-MEL-28 melanoma | SK-OV-3 ovarian | CAKI-1 renal | HL-60(TB) leukemia | OVCAR-4 ovarian | OVCAR-3 ovarian | BT-549 breast | NCI/ADR-RES ovarian | UACC-62 melanoma | HS 578T breast | HCT-15 colon | NCI-H23 lung | PC-3 prostate | COLO 205 colon | SR leukemia | OVCAR-5 ovarian | SN12C renal | NCI-H460 lung | K-562 leukemia | MDA-MB-435 | HOP-62 NSCLC | SK-MEL-5 melanoma
